The subject of one assay is MES-SA cells. Nature of the assay: MTT viability assay, MES-SA. The assay is classed as cell-based, human. An excerpt:
(§1) MDCK II canine kidney cells, A431 epidermoid carcinoma cells, the human uterine sarcoma cell lines MES-SA and the doxorubicin selected MES-SA-Dx5 were obtained from ATCC (MDCK II: No. CRL-2936™, A431: No. CRL-1555™, MES-SA: No. CRL-1976™, MES-SA/Dx5: No. CRL-1977™). ABCB1 was expressed in A431 and MES-SA cells using lentiviral transduction. The human cervix carcinoma cell line KB-3-1 and the vinblastine selected KB-v1were kind gifts from Dr. Michael M. Gottesman, National Institutes of Health. The phenotype of the resistant cells was verified using cytotoxicity assays. MDCK-B1 and MDCK-MM were established by the Sleeping Beauty transposon-based gene delivery system. OVCAR-8 and NCI-ADRres cells (obtained from the Division of Cancer Treatment and Diagnosis (DCTD) Tumor Repository (National Cancer Institute, Frederick, MD, USA)) were cultivated in RPMI-1640 (Sigma Aldrich, Budapest, Hungary), and other cell lines were cultivated in Dulbecco’s Modified Eagle Medium (DMEM, Sigma Aldrich, Budapest, Hungary), supplemented with 10% fetal bovine serum, 5 mM glutamine, and 50 unit/mL penicillin and streptomycin (Life Technologies, Carlsbad, CA, USA). All cell lines were cultivated at 37 °C, 5% CO2.
(§2) MTT viability assays were performed as described earlier with minor modifications. Briefly, cells were seeded into 96-well tissue culture plates (Sarstedt, Newton, NC, USA/Orange, Braine-l’Alleud, Belgium) at a density of 5000 cells/well and allowed to attach overnight. Test compounds were added to achieve the required final concentration in a final volume of 100 µL per well. After an incubation period of 72 h, the supernatant was removed and fresh medium containing the MTT reagent (0.083 mg/mL) was added. Incubation with MTT at 37 °C was terminated after 1 h by removing the supernatant and lysing the cells with 100 µL DMSO per well. Viability of the cells was measured spectrophotometrically based on the absorbance values at 540 nm using either a Perkin Elmer Victor X3 or an EnSpire microplate reader. Data were background corrected by subtraction of the signal obtained from unstained cell lysates and normalized to untreated cells. Curves were fitted by Prism software (GraphPad Software Inc., San Diego, CA, USA) using the sigmoidal dose-response model (comparing variable and fixed slopes). […] Significance was calculated using unpaired t-tests; results are given as *: p ≤ 0.05, **: p ≤ 0.01, ***: p ≤ 0.001, ****: p ≤ 0.0001.
For orientation: Tetrazolium dyes change colour on reduction, which living cells bring about.

The next assay concerns MES-SA/Dx5 cells. Put plainly: MTT viability assay, MES-SA/Dx5. It is filed as cell-based, human. As to conditions: for SR: Table S1, IC50 Pgp negative divided by Pgp positive cells; for IC50: Table S1, calculated as ligand equivalents; for SR_TQ: Table S1, presence of 1 µM TQ.
Source text: as §1, §2

The mark [1] stands for this setting: Table S1, calculated as ligand equivalents, presence of 1 µM TQ, read-out: IC50 MES-SA_TQ.
[2] abbreviates: Table S1, ligands and in situ preformed complexes, calculated as ligand equivalents, absence of TQ, read-out: IC50 MES-SA.
[3] abbreviates: absence of TQ, read-out: IC50 Dx5.
The mark [4] stands for this setting: presence of 1 µM TQ, read-out: IC50 Dx5_TQ.

Where two headings read alike, the source gives them in different places.

What is called IC50 is the midpoint of a concentration-inhibition curve.

For `[Cu+2].[O-]c1cccc2cccnc12.[O-]c1cccc2cccnc12` [1/2 [Cu(Q-1)2]], the half-maximal inhibitory concentration (IC50) was 4140 ± 1200 nM with MES-SA cells (setting [1]), 3770 ± 660 nM in the assay with MES-SA cells (setting [2]), 2030 ± 460 nM in the assay on MES-SA/Dx5 cells (setting [3]) and 2610 ± 440 nM in the assay with MES-SA/Dx5 cells (setting [4]). The compound also showed an SR in the assay on MES-SA/Dx5 cells (absence of TQ) of 1.86. Moreover, the SR_TQ with MES-SA/Dx5 cells came out at 1.58.

As for `[Cu+2].[O-]c1c(CN2CCOCC2)ccc2cccnc12.[O-]c1c(CN2CCOCC2)ccc2cccnc12` [1/2 [Cu(Q-2)2]], the IC50 in the assay with MES-SA cells (setting [1]) is 2020 ± 650 nM; in the assay with MES-SA cells (setting [2]), 2270 ± 670 nM; with MES-SA/Dx5 cells (setting [3]), 1760 ± 560 nM; in the assay with MES-SA/Dx5 cells (setting [4]), 1920 ± 450 nM. The SR in the assay on MES-SA/Dx5 cells (absence of TQ) was 1.29. In addition, in the assay with MES-SA/Dx5 cells, the SR_TQ is 1.05.

Consider `[Cu+2].[O-]c1c(CN2CCCCC2)ccc2cccnc12.[O-]c1c(CN2CCCCC2)ccc2cccnc12` [1/2 [Cu(Q-3)2]], for which the IC50 was 2130 ± 650 nM with MES-SA cells (setting [1]), 1910 ± 590 nM with MES-SA cells (setting [2]), 760 ± 260 nM with MES-SA/Dx5 cells (setting [3]) and 2040 ± 360 nM in the assay with MES-SA/Dx5 cells (setting [4]). The compound also showed an SR in the assay with MES-SA/Dx5 cells (absence of TQ) of 2.52. Also, the SR_TQ in the assay with MES-SA/Dx5 cells came out at 1.04.

`[Cu+2].[O-]c1c(CNCc2ccccc2F)cc(Cl)c2cccnc12.[O-]c1c(CNCc2ccccc2F)cc(Cl)c2cccnc12` [1/2 [Cu(Q-4)2]]: the IC50 is 1360 ± 260 nM in the assay on MES-SA cells (setting [1]), 1460 ± 160 nM in the assay on MES-SA cells (setting [2]), 290 ± 39 nM in the assay with MES-SA/Dx5 cells (setting [3]) and 1220 ± 25 nM in the assay with MES-SA/Dx5 cells (setting [4]). Further, the SR in the assay on MES-SA/Dx5 cells (absence of TQ) came to 5.03. For the same compound, in the assay on MES-SA/Dx5 cells, the SR_TQ stood at 1.11.

Regarding `[Fe+3].[O-]c1cccc2cccnc12.[O-]c1cccc2cccnc12.[O-]c1cccc2cccnc12` [1/3 [Fe(Q-1)3]], the IC50 in the assay on MES-SA cells (setting [1]) is 3070 ± 360 nM; in the assay on MES-SA cells (setting [2]) it was 3310 ± 520 nM; with MES-SA/Dx5 cells (setting [3]), 2920 ± 800 nM; in the assay with MES-SA/Dx5 cells (setting [4]), 2960 ± 640 nM. For the same compound, the SR with MES-SA/Dx5 cells (absence of TQ) was found to be 1.13. The SR_TQ with MES-SA/Dx5 cells is on record as 1.04.

In the case of `[Fe+3].[O-]c1c(CN2CCOCC2)ccc2cccnc12.[O-]c1c(CN2CCOCC2)ccc2cccnc12.[O-]c1c(CN2CCOCC2)ccc2cccnc12` [1/3 [Fe(Q-2)3]], the IC50 in the assay on MES-SA cells (setting [1]) was 4350 ± 580 nM; in the assay on MES-SA cells (setting [2]), 3870 ± 880 nM; in the assay with MES-SA/Dx5 cells (setting [3]) it was 3130 ± 840 nM; in the assay with MES-SA/Dx5 cells (setting [4]) it was 4230 ± 520 nM. The SR in the assay on MES-SA/Dx5 cells (absence of TQ) was 1.24. The SR_TQ with MES-SA/Dx5 cells is recorded as 1.03.
